# Assay results published in patent publication US10780074B2, “Compounds and uses thereof” (Sunovion Pharmaceuticals Inc., priority 2017, dated 2020).
# Counter-ions that a name gives are not always drawn.
# System: behaviors of compound-treated mice
# Assay: Neuropharmacological Assay (SmartCube)
# Format: in vivo
# Conditions: Mus musculus, ip, 0.25 h, dose having 50% or more total activity in SmartCube, i.p., read-out: MED (minimal effective dose)
# Source text: Neuropharmacological Assay (SmartCube™)
# Neurosci. 2011 Sep. 9; 5:103 (doi: 10.3389/fnins.2011.00103) (“Roberds”). As reported in Roberds, because psychiatric diseases generally result from disorders of cell-cell communication or circuitry, intact systems are useful in detecting improvement in disease-relevant endpoints. These endpoints are typically behavioral in nature, often requiring human observation and interpretation. To facilitate testing of multiple compounds for behavioral effects relevant to psychiatric disease, PsychoGenics, Inc. (Tarrytown, N.Y., “PGI”) developed SmartCube™, an automated system in which behaviors of compound-treated mice are captured by digital video and analyzed with computer algorithms. (D. Brunner et al., Drug Discov. Today 2002, 7:S107-S112). PGI Analytical Systems uses data from SmartCube™ to compare the behavioral signature of a test compound to a database of behavioral signatures obtained using a large set of diverse reference compounds. (The composition of the database as well as validation of the method is further described in Roberds). In this way, the neuropharmacological effects of a test compound can be predicted by similarity to major classes of compounds, such as antipsychotics, anxiolytics and antidepressants.
# The SmartCube™ system produces an activity signature indicating the probability that the activity of the test compound at the administered dose matches a given class of neuropharmacological agents. (See, e.g., Roberds, FIGS. 2 and 3). The test compound is simultaneously compared against multiple classes of agents; thus, a separate probability is generated for each behavioral effect measured (e.g., anxiolytic activity, analgesic activity, etc.). In the table below, these probabilities are reported for each behavioral effect measured as follows:
# Provided compounds were dissolved in a mixture of Pharmasolve™ (N-methyl-2-pyrrolidone), polyethylene glycol and propylene glycol, and were injected i.p. 15 min. before the behavioral test. For each compound, injections were administered at 3 different doses. For each behavioral effect measured, results for the most efficacious dose(s) are presented. In the table below, DP: anti-depressant; AX: anxiolytic; SD: sedative hypnotic; PS: anti-psychotic; MS: mood stabilizer; AD: ADHD; CE: cognitive enhancer; AG: analgesic; UN: uncharacterized CNS activity.
# The potency of many of the compounds in the table was also determined in the SmartCube™ system. Test compounds were routinely examined at dose levels of 0.3, 1, 3 10 and 30 mg per kg (mpk), although the dose range was increased or decreased if necessary to obtain a full dose response curve. A compound's minimal effective dose (MED) is a measure of the compounds potency. The MED was defined as the dose (in mpk) having 50% or more total activity in SmartCube.
row,SMILES,minimal effective dose [mg/kg]
1,"NC[C@H]1OCCc2c(-c3cncnc3)cccc21 (single isomer, unassigned) [Compound 28, hydrochloride salt]",3 to 10
2,"CNC[C@@H]1OCCc2c(-c3cncnc3)cccc21 (single isomer, unassigned) [Compound 29, hydrochloride salt]",> 30
3,"CNC[C@H]1OCCc2c(-c3cncnc3)cccc21 (single isomer, unassigned) [Compound 30, hydrochloride salt]",3 to 10
4,"CNC[C@@H]1OCCc2cc(-c3cccnn3)ccc21 (single isomer, unassigned) [Compound 31, hydrochloride]",> 30
5,"CNC[C@H]1OCCc2cc(-c3cccnn3)ccc21 (single isomer, unassigned) [Compound 32, hydrochloride]",> 30

# Same assay, conditions: i.p. 15 min before behavioral test, most efficacious dose(s) of 3 doses
SMILES,AD: ADHD (probability that activity matches class),AG: analgesic (probability that activity matches class),AX: anxiolytic (probability that activity matches class),CE: cognitive enhancer (probability that activity matches class),DP: anti-depressant (probability that activity matches class),MS: mood stabilizer (probability that activity matches class),PS: anti-psychotic (probability that activity matches class),SD: sedative hypnotic (probability that activity matches class),UN: uncharacterized CNS activity (probability that activity matches class)
"NC[C@H]1OCCc2c(-c3cncnc3)cccc21 (single isomer, unassigned) [Compound 28, hydrochloride salt]",++ (5% ≤ ++ <25%),++ (5% ≤ ++ <25%),++ (5% ≤ ++ <25%),++ (5% ≤ ++ <25%),+++ (25% ≤ +++ <50%),+ (LOQ ≤ + <5%),++ (5% ≤ ++ <25%),+ (LOQ ≤ + <5%),++ (5% ≤ ++ <25%)
"CNC[C@@H]1OCCc2c(-c3cncnc3)cccc21 (single isomer, unassigned) [Compound 29, hydrochloride salt]",+ (LOQ ≤ + <5%),+ (LOQ ≤ + <5%),+ (LOQ ≤ + <5%),+ (LOQ ≤ + <5%),+ (LOQ ≤ + <5%),+ (LOQ ≤ + <5%),+ (LOQ ≤ + <5%),+ (LOQ ≤ + <5%),+ (LOQ ≤ + <5%)
"CNC[C@H]1OCCc2c(-c3cncnc3)cccc21 (single isomer, unassigned) [Compound 30, hydrochloride salt]",++ (5% ≤ ++ <25%),++ (5% ≤ ++ <25%),++ (5% ≤ ++ <25%),++ (5% ≤ ++ <25%),++++ (50% ≤ ++++),+ (LOQ ≤ + <5%),+ (LOQ ≤ + <5%),+ (LOQ ≤ + <5%),+ (LOQ ≤ + <5%)
"CNC[C@@H]1OCCc2cc(-c3cccnn3)ccc21 (single isomer, unassigned) [Compound 31, hydrochloride]",+ (LOQ ≤ + <5%),+ (LOQ ≤ + <5%),++ (5% ≤ ++ <25%),+ (LOQ ≤ + <5%),++ (5% ≤ ++ <25%),+ (LOQ ≤ + <5%),+ (LOQ ≤ + <5%),+ (LOQ ≤ + <5%),+ (LOQ ≤ + <5%)
"CNC[C@H]1OCCc2cc(-c3cccnn3)ccc21 (single isomer, unassigned) [Compound 32, hydrochloride]",+ (LOQ ≤ + <5%),+ (LOQ ≤ + <5%),+ (LOQ ≤ + <5%),+ (LOQ ≤ + <5%),+ (LOQ ≤ + <5%),+ (LOQ ≤ + <5%),+ (LOQ ≤ + <5%),+ (LOQ ≤ + <5%),+ (LOQ ≤ + <5%)
